This passage reports RP-LC retention time results from the METLIN SMRT retention time set (Domingo-Almenara et al. 2019).

The nature of this data set: gradient 5% acetonitrile 3 min, to 50% in 2 min, to 85% in 15 min, held 3 min, 100 µL/min. Particulars: column: Zorbax Extend-C18 2.1 x 50 mm; eluents: water / acetonitrile, 0.1% formic acid. Put shortly:
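The system's dead and dwell volumes were 40 μL and 900 μL, with a Zorbax Extend-C18 column (2.1 × 50 mm, 1.8 μm) run at 100 μL/min in water and acetonitrile containing 0.1% formic acid each. Pure standards were analyzed in mixtures of ~100 molecules by HPLC–quadrupole time-of-flight mass spectrometry in positive and negative ionization mode. Retention time was assigned from computationally picked, manually inspected adduct peaks.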
`Fc1ccc(-c2noc(CCc3nnc4ccc(N5CCN(C6CCCCC6)CC5)nn34)n2)cc1` gave an RP-LC retention time of 653 s. The value for `Cc1[nH]c(C(=O)N2CCC(CC(=O)NCc3ccccc3Cl)CC2)c(C)c1C(=O)OC(C)C` was 876 s; that for `O=C(NCc1ccco1)c1ccc2c(c1)C(=O)c1ccccc1-2` was 749 s. The value for `Cc1cccc(N2CCN(CC(O)c3ccc4c(c3)OCO4)CC2)c1C` (stereo not given) was 720 s; that for `O=C(NCCc1c[nH]c2ccccc12)c1cc(=O)c(OCc2ccc(F)cc2)co1` was 765 s; that for `CCc1noc(NC(C)=O)c1-c1ccc(C)c(S(=O)(=O)Nc2ccc(F)cc2Cl)c1` was 872 s. The value for `Cc1cc(S(=O)(=O)N2CC(F)(F)C[C@H]2CN2CCc3ccccc3C2)ccc1F` was 790 s; that for `O=C(C1CCC1)N1CCC(c2noc(-c3ccncc3)n2)C1` (stereo not given) was 693 s; that for `Cc1ccc(-n2c(-c3ccc(Cl)cc3)cn3c4c(=O)n(C)c(=O)n(C)c4nc23)cc1C` was 720 s. As for `O=C(C1CC1)N1CCc2sc(S(=O)(=O)Nc3ccc(N4CCOCC4)cc3)cc2C1`, the RP-LC retention time stood at 743 s. For the compound `O=C(c1csc(N2CCCCCC2)n1)N1CCOCC1`, the RP-LC retention time came to 767 s. To `Cc1ccc(-n2nc3c(N4CCCC(C(=O)N5CCc6ccccc65)C4)nnc(C)c3c2C)cc1` (stereo not given) belongs 830 s; to `Cc1nc(-c2noc(-c3ccccc3)n2)cn1CC(=O)Nc1ccc(F)c(Cl)c1`, 917 s. `CC(C)n1c(CCNC(=O)c2cc(F)cc(F)c2)nc2cccnc21` displayed an RP-LC retention time of 694 s. To `O=C(NC1CCN(c2nnc3ccc(Cl)cn23)CC1)c1ccsc1` belongs 602 s; to `CCOC(=O)c1[nH]c(C)c(CCC(=O)N2CCC(C(=O)NCc3cccc(OC)c3)CC2)c1C`, 773 s; to `O=C(Cn1nc(N2CCCC2)c2ccccc2c1=O)Nc1cccc(Cl)c1`, 989 s. The value for `O=C(NCc1ccccc1F)C1CCN(c2nnc3ccc(C(F)(F)F)cn23)CC1` was 764 s; that for `O=C(c1n[nH]c2ccccc12)N1CCN(c2ccc(C(F)(F)F)cn2)CC1` was 832 s; that for `COc1ccc(NC(=O)c2nc(C)oc2C)cc1OC` was 750 s. The value for `CC(C)NC(=O)c1ccccc1OCC1CCCNC1` (stereo not given) was 583 s; that for `Cc1ccccc1-c1nnc(CSc2nnc(NC(=O)c3c(F)cccc3F)s2)o1` was 905 s; that for `Cc1nc2cc(-c3noc(-c4ccccc4)n3)ccc2o1` was 1050 s. Turning to `O=C([C@@H]1C[C@H](Oc2cccnc2)CN1C(=O)c1cnccn1)N1CCCC1`, the RP-LC retention time came out at 552 s. The value for `CC1Oc2ccc(-c3csc(NC(=O)C4CCCCC4)n3)cc2N(C)C1=O` (stereo not given) was 1040 s; that for `CCCNC(=O)c1cc2c(s1)N(CC1CC1)CCCC2` was 1020 s. Consider `CC(C)n1c(N2CCN(C(=O)c3cccs3)CC2)cc(=O)n(C(C)C)c1=O`, for which the RP-LC retention time amounted to 812 s. `O=C(Nc1nnc(-c2ccc(Br)cc2)o1)c1ccccc1F` registered an RP-LC retention time of 788 s. The value for `Cc1cc(S(=O)(=O)N2CCc3nc(-c4ccccc4)ncc3C2)ccc1F` was 1090 s; that for `NC(=O)C1CCN(C2CC(=O)N(Cc3ccccc3)C2=O)CC1` (stereo not given) was 579 s; that for `CC(C)NC(=O)N(CC(=O)N1CCc2sccc2C1COc1cccc(F)c1)C1CC1` (stereo not given) was 942 s. Take `COc1ccc(CC(=O)N2CCC3(C2)C(=O)Nc2ccc(OC)cc23)cc1` (stereo not given): the RP-LC retention time was determined as 709 s. The value for `CC(C)c1nncn1C1CCN(S(=O)(=O)c2cccc(Cl)c2)CC1` was 767 s. To `C=CCN1C(=O)COc2ccc(-c3csc(NC(=O)C4CCCCC4)n3)cc21` belongs 1060 s. To `CCCCn1c(=O)c2ccccc2n(Cc2nc(-c3ccc(OCC)c(OC)c3)no2)c1=O` belongs 968 s.

`CC1=C(c2ccc(C(C)C)cc2)S(=O)(=O)N=C1N1CCC(NC(=O)CCC(C)C)CC1` displayed an RP-LC retention time of 1020 s. Compound `Cc1noc(C)c1C1CCCN1C(=O)Cc1ccc(Cl)cc1` (stereo not given) came in with an RP-LC retention time of 809 s. To `Cc1ccc(C)c(NS(=O)(=O)c2cc(-c3[nH]ncc3C(=O)N(C)C)oc2C)c1` belongs 700 s; to `CCc1noc(NC(C)=O)c1-c1ccc(OC)c(S(=O)(=O)N2CCC3(CC2)OCCO3)c1`, 714 s; to `CC(C)c1ccc(CN2C[C@@H]3C(=O)N(CCc4ccccc4)C(=O)[C@@H]3C2)cc1`, 772 s. To `CCn1cc(CCNC(=O)c2ccccc2OC)c2cccnc21` belongs 716 s; to `O=C(NCCc1nc2cccnc2n1Cc1ccccc1)NCc1ccc(F)cc1`, 738 s; to `C=CCN(CC=C)c1nc(-c2ccccc2)nc2ccccc12`, 770 s.

Take `Cc1csc(-c2cc(S(=O)(=O)N3CCN(c4ccccc4)CC3)c(C)s2)n1`: the RP-LC retention time was determined as 1160 s.

In the case of `O=C(NCc1cc(F)cc(F)c1)c1c(O)c2cccnc2n(-c2ccc(F)cc2)c1=O`, the RP-LC retention time was 1180 s. To `O=C(NCC(F)(F)F)C1CCN(C(=O)Cc2ccc(Cl)cc2)CC1` belongs 707 s; to `CCCCNC(=O)CCCN1C(=O)CCn2nc(C)cc21`, 629 s.

Compound `COc1ccc(-c2nc3cnccn3c2Nc2ccc(C)cc2C)cc1` gave an RP-LC retention time of 971 s. The value for `O=C(CCSc1ccccc1)NCCn1cnc(-c2ccc(F)cc2)cc1=O` was 759 s. The value for `COc1ccc(OC)c(NC(=O)Nc2c(-c3ccc(F)cc3)nc3ccccn23)c1` was 625 s; that for `Cc1cc(-c2nnc(-c3ccc(F)cc3)o2)c(C)n1CC(=O)NCc1ccccc1` was 920 s. Consider `COc1ccc(S(=O)(=O)Nc2ccc(C)n(CC(=O)O)c2=O)cc1`, for which the RP-LC retention time was 678 s. Regarding `Cc1cccc(NC(=O)C2C(=O)NC3(C)CC2c2ccccc2O3)c1` (stereo not given), the RP-LC retention time was 920 s. To `Cc1ccc(NC(=O)C2CCCN(c3cc(=O)n(C)c(=O)n3C)C2)cc1C` (stereo not given) belongs 746 s; to `O=C(C1CC1)N1CCC(N(Cc2cccnc2)C2CCOCC2)CC1`, 550 s. The value for `COC(=O)c1[nH]c(C)c(C(=O)C(C)N(CC(C)C)C(=O)c2ccc(OC)cc2)c1C` (stereo not given) was 859 s; that for `O=C(NCCN1CCCCCC1)c1cc2n(n1)CCCN(Cc1ccc(Cl)cc1)C2=O` was 670 s.

Compound `CC(=O)N1CCc2ccc(C(=O)N3CCOCC3)cc21` registered an RP-LC retention time of 602 s. To `Cc1nccn1C1CN(C(=O)Nc2ccccc2)C1` belongs 568 s; to `COc1ccc(-c2ncccc2CNS(=O)(=O)c2ccc(C#N)cc2)cc1`, 673 s.
